The values that follow come from ChEMBL document CHEMBL1201862, “PubChem BioAssay data set” (2004).

Structures are written as SMILES. Calls of active or inactive are those of the source.

The target of assay [1] is Peroxisome proliferator-activated receptor gamma/Nuclear receptor coactivator 2 (Homo sapiens, UniProt P37231). The class given is functional.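 Further: agonist potency for raising coactivator recruitment to the receptor.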
For assay [2], the target named is Peroxisome proliferator-activated receptor gamma/Nuclear receptor coactivator 1 (Homo sapiens, UniProt P37231). The class given is functional.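 Further: agonist potency as compounds enhance coactivator SRC-1 recruitment to PPARgamma.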
Sequence of Peroxisome proliferator-activated receptor gamma/Nuclear receptor coactivator 1 (P37231 whole entry): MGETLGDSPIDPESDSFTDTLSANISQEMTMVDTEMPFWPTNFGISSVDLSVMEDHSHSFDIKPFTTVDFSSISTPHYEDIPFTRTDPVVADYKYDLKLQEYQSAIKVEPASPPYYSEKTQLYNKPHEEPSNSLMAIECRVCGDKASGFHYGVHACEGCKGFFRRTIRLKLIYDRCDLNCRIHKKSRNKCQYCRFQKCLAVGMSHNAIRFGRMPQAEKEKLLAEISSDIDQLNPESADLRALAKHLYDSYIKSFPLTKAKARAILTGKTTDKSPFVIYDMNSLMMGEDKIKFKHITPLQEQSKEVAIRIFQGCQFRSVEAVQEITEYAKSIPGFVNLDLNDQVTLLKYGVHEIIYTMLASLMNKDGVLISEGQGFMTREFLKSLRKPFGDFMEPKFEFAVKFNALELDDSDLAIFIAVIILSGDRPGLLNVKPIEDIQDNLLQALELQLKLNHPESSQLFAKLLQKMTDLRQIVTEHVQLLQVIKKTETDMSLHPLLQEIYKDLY
Sequence of Peroxisome proliferator-activated receptor gamma/Nuclear receptor coactivator 1 (Q15788 whole entry, further chain): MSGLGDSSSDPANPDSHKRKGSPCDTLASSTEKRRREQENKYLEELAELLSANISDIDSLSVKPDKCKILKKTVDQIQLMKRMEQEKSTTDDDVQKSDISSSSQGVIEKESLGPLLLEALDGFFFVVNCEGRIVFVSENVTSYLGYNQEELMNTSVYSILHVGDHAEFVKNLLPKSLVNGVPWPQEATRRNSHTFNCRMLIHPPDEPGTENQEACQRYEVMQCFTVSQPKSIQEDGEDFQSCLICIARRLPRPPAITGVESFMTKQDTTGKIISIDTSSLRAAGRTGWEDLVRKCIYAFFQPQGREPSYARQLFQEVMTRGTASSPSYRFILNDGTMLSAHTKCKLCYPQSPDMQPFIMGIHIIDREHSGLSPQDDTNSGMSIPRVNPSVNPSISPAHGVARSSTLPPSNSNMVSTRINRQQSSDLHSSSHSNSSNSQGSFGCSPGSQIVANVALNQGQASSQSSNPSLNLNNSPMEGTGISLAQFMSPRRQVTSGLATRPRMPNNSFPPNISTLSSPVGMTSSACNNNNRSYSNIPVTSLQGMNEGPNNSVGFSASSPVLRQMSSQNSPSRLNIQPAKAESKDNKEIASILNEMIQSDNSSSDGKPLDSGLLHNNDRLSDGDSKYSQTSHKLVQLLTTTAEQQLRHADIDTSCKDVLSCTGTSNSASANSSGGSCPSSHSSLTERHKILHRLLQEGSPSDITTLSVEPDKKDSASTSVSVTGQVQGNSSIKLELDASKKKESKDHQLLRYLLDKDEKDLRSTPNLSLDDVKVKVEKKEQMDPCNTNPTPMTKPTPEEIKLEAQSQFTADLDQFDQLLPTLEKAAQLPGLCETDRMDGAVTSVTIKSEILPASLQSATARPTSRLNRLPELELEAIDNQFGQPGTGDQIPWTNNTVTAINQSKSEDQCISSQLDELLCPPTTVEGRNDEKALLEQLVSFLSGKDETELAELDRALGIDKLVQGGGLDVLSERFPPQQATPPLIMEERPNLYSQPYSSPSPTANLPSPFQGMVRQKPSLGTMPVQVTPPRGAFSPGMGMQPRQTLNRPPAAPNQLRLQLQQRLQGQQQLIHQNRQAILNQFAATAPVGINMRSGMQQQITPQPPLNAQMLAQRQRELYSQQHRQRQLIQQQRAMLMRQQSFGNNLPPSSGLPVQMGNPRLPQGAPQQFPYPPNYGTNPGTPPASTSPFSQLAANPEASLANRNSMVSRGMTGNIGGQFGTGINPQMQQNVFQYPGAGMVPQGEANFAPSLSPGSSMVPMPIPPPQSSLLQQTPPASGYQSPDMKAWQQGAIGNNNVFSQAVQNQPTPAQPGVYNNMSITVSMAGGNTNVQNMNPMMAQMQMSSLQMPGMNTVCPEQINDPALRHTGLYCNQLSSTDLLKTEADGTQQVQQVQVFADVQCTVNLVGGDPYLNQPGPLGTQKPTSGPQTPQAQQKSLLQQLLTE
The target in assay [3] is Peroxisome proliferator-activated receptor gamma/Nuclear receptor coactivator 3 (Homo sapiens, UniProt P37231). Format: functional.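 Further: agonist potency for raising coactivator recruitment to the receptor.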
Assay [4] is described as follows: cells. The class given is functional, cell-based.
The nature of assay [5]: cells. The class given is functional, cell-based. This is another data set of the same source.
The target of assay [6] is Voltage-dependent T-type calcium channel subunit alpha-1H (Homo sapiens, UniProt O95180). Format: functional.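 Further: channel activity triggered by adding a high calcium stimulation buffer.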
The target of another assay is T1, Coagulation factor XII (Homo sapiens, UniProt P00748).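 Further: activated factor XIIa alpha cleaving a fluorogenic AMC peptide substrate; inhibitor potency from loss of enzyme activity.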
T1 sequence (P00748 whole entry): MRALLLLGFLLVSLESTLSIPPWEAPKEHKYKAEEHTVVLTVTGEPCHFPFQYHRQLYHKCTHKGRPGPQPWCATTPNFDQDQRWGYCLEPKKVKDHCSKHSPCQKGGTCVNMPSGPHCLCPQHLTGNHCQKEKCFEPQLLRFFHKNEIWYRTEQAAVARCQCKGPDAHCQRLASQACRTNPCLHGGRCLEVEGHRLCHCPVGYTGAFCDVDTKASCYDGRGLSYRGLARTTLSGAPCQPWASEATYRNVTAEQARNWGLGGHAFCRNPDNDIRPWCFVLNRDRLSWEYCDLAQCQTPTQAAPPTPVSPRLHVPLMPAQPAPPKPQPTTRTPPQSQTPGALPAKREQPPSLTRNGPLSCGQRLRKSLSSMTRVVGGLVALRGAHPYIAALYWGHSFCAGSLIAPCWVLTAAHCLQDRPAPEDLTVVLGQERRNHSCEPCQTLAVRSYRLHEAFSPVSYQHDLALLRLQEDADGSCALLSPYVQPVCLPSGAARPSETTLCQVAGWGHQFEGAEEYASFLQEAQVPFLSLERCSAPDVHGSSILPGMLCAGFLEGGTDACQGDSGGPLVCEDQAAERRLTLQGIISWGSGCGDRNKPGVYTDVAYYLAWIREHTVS
The class given is functional.

Another assay addresses Estrogen receptor beta (Homo sapiens, UniProt Q92731). As to the kind of experiment: ERβ–SRC-3 coactivator interaction inhibitors, confirmation, orthogonal assay, biochemical, ELISA, streptavidin-HRP readout (AID 1060).
Assay [7] addresses DNA dC->dU-editing enzyme APOBEC-3G (Homo sapiens, UniProt Q9HC16). As to the kind of experiment: Dose Response confirmation of small molecule APOBEC3G DNA Deaminase Inhibitors via a fluorescence-based single-stranded DNA deaminase assay. [Related pubchem assays (depositor defined):AID493012, AID493028]. The class given is functional.
Assay [8] deals with HEK293. As to the kind of experiment: cells. The conditions noted are these: Homo sapiens.
In assay [9] the test system is HEK293. As to the kind of experiment: cells. The note with it: Homo sapiens. This is another data set of the same source.
Assay [10] addresses Voltage-gated N-type calcium channel alpha-1B subunit/Amyloid beta A4 precursor protein-binding family A member 1 (Homo sapiens, UniProt Q00975+Q02410). Kind of assay: disruptors of Mint-PDZ/N-type channel peptide interaction – biochemical, HTRF, set 2, SAR follow-up (AID 434980). Format: functional.
The target in a further assay is Paired box protein Pax-8 (Homo sapiens, UniProt Q06710). As to the kind of experiment: inhibitors of PAX8-driven TPO luciferase reporter, dose response, RMG-I cells, cherry-pick (AID 687027).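 Further: luciferase reporter driven by Pax8 target thyroperoxidase promoter measured by SteadyGlo luminescence.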 The class given is functional, cell-based.
Sequence of Paired box protein Pax-8 (Q06710 whole entry): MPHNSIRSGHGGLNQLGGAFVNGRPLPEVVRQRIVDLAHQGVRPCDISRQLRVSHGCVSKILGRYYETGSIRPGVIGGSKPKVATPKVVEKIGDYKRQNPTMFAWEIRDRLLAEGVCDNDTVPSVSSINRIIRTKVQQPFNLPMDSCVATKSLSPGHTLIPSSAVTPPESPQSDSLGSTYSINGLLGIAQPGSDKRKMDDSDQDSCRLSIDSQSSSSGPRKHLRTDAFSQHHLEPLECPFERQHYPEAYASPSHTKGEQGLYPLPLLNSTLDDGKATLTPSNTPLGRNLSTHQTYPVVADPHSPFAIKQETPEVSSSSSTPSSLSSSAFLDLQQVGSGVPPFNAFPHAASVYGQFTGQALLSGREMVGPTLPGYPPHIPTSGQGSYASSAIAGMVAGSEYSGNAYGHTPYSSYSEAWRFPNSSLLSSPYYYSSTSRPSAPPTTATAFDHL
Assay [11] is described as follows: NIH:OVCAR-3 ovarian cancer cell cytotoxicity, dose response, PAX8 inhibitor project, plate reader, dry powder samples (AID 743044). Format: functional, cell-based.
The nature of assay [12]: cytotoxicity in OVCAR8 ovarian cancer cells, dose response, PAX8 project, cell-based, plate reader, dry powder samples (AID 743197). The class given is functional. The conditions noted are these: OVCAR-8.

Sequence of Peroxisome proliferator-activated receptor gamma/Nuclear receptor coactivator 2 (P37231 whole entry): as the sequence (P37231 whole entry) above
Sequence of Peroxisome proliferator-activated receptor gamma/Nuclear receptor coactivator 2 (Q15596 whole entry, further chain): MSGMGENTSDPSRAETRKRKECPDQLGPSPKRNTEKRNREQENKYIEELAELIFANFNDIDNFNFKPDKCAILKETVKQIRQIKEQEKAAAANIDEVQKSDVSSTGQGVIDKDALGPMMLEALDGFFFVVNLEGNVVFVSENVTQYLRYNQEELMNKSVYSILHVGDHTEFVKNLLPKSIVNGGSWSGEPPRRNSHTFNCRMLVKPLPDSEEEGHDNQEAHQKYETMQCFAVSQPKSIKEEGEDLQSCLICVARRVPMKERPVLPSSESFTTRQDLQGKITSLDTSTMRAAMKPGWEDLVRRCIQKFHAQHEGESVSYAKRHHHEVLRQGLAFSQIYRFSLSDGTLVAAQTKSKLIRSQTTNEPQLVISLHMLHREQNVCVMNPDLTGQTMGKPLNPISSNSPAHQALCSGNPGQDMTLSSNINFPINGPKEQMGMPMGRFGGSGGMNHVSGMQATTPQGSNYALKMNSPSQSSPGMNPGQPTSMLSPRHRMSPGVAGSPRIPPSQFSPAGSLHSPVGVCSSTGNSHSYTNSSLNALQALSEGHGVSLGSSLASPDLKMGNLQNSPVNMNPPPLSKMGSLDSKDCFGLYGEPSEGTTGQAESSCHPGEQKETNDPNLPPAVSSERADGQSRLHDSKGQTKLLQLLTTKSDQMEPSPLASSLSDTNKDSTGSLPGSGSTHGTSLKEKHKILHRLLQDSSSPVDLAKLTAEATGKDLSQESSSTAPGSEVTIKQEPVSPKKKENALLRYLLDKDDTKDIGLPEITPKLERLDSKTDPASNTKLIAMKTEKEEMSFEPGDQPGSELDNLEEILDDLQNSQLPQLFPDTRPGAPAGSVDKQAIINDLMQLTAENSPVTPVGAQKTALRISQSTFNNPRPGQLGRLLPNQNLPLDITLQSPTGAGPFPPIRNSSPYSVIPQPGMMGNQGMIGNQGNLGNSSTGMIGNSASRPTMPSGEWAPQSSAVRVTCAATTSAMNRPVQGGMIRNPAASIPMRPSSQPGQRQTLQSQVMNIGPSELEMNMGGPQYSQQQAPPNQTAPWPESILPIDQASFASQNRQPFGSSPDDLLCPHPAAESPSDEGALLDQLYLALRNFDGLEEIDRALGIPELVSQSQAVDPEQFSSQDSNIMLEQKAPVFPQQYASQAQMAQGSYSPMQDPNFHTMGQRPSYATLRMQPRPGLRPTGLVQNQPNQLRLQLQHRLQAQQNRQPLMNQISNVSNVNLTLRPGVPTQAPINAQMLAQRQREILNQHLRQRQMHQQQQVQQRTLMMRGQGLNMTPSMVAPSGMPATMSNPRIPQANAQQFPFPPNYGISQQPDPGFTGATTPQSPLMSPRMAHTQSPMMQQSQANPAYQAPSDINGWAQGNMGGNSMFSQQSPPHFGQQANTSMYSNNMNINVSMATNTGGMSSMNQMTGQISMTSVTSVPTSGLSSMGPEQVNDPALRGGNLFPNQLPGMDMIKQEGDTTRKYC
Sequence of DNA dC->dU-editing enzyme APOBEC-3G (Q9HC16 whole entry): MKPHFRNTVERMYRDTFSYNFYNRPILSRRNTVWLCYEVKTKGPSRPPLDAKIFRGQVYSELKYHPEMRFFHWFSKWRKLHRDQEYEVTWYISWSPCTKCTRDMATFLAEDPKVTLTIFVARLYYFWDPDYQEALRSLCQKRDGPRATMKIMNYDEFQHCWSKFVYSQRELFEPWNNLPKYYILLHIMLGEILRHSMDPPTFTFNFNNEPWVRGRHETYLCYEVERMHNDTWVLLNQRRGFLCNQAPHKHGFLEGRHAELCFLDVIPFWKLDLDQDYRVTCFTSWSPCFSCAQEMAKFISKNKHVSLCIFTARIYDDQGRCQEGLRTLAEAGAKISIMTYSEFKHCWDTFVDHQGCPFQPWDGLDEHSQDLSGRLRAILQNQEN

On to `COc1cc(C2CC(=O)N3CN(Cc4ccccc4)CSC3=C2C#N)ccc1OCc1ccccc1` (configuration not stated), for which the EC50 in assay [1] is > 79.4 µM (not active); in assay [2], > 79.4 µM (not active); in assay [3] it was > 79.4 µM (not active); in “cells [4]” it was > 350 µM (not active); in the assay “cells [5]” it was 40.3 µM (active).
On to `CC(C)(C)n1ncc2c(=O)n(CC(=O)Nc3ccc(Cl)cc3)cnc21`, for which, in assay [6], the EC50 is 4.08 µM (active).
In the case of `CCOc1ccc(N(CC(=O)Nc2cc(C)ccc2C)S(=O)(=O)c2c(C)nc(O)nc2O)cc1`, the IC50 at Coagulation factor XII was > 50 µM (inactive).
On to `N#Cc1cc2c(nc1SCc1ccccc1)CCC2`, for which the figures for the EC50 in assay [1], in [2] and in assay [3] were 45.2 µM (not active), 41 µM (not active) and 56.6 µM (not active), respectively. For the same compound, at Estrogen receptor beta, the IC50 is 0.0254 µM (not active).
With `CCC1=NN(C(=O)Cc2ccc([N+](=O)[O-])cc2)C(O)(C(F)(F)F)C1` (configuration not stated), on Coagulation factor XII, the IC50 was > 50 µM (inactive).
Same read-out and setting: the value for `CCO/C(O)=C1\C(C)=NC(=S)N(C(C)=O)C1c1ccc(OC)c(OC)c1` (configuration not stated) was > 50 µM (inactive).
Consider `Nc1ccccc1SC(C[N+](=O)[O-])c1ccccc1` (configuration not stated), for which the IC50 in assay [7] was 28.2 µM (active).
In the case of `O=C(CSc1nnc(CNC(=O)c2cccs2)o1)Nc1cccc(C(F)(F)F)c1`, the EC50 in assay [6] was 4.46 µM (active).
For the compound `COc1ccc(C2C=C(C34CC5CC(CC(C5)C3)C4)N=C(S)N2)cc1OC` (configuration not stated), the EC50 with HEK293 [8] and with HEK293 [9] was > 59.6 µM (inactive) throughout.
For the compound `CCC(C)NC(=O)CSc1ncnc2sccc12` (configuration not stated), the IC50 on Coagulation factor XII was > 50 µM (inactive).
Turning to `CCOC(=O)C1=NN(c2cccc(Cl)c2)C2=NC(C)=C(C(=O)OC)C(c3cccs3)N12` (configuration not stated), the EC50 in assay [1], in [2] and in assay [3] was > 79.4 µM (not active) throughout.
Take `CC(C)(C)c1ccc(CNC(=O)c2cc(-c3ccco3)nc3ccccc23)cc1`: the IC50 in assay [10] is 39.5 µM (active).
On the same count and under the same terms, as for `O=C(N[C@@H]1C[C@H]1c1ccccc1)c1cc(-c2ccco2)nc2ccccc12`, the figure is 46.4 µM (active).
As for `Cc1noc(C)c1S(=O)(=O)Nc1ccc2c(c1)C(=O)N([C@H](C)CO)C[C@H](C)[C@@H](CN(C)C(=O)Nc1ccc(C(F)(F)F)cc1)OCCCC[C@H](C)O2`, the values for the AC50 (at Paired box protein Pax-8; in [11]; in [12]) were 9.4 µM (active), < 0.26 µM (active) and > 70 µM (inactive), respectively.
Regarding `COc1cc(/C=N/n2c(S)nnc2-c2ccccc2)cc(OC)c1O`, in assay [7], the IC50 is > 100 µM (inactive).
